{
  "source": "patent US9790253B2",
  "about": "“OSW-1 analogs and conjugates, and uses thereof” (priority 2011, dated 2017)",
  "key": {"[1]": {"target": "T1, ORP4L-myc-his (Homo sapiens, UniProt Q969R2)", "T1 sequence (Q969R2 1-916)": "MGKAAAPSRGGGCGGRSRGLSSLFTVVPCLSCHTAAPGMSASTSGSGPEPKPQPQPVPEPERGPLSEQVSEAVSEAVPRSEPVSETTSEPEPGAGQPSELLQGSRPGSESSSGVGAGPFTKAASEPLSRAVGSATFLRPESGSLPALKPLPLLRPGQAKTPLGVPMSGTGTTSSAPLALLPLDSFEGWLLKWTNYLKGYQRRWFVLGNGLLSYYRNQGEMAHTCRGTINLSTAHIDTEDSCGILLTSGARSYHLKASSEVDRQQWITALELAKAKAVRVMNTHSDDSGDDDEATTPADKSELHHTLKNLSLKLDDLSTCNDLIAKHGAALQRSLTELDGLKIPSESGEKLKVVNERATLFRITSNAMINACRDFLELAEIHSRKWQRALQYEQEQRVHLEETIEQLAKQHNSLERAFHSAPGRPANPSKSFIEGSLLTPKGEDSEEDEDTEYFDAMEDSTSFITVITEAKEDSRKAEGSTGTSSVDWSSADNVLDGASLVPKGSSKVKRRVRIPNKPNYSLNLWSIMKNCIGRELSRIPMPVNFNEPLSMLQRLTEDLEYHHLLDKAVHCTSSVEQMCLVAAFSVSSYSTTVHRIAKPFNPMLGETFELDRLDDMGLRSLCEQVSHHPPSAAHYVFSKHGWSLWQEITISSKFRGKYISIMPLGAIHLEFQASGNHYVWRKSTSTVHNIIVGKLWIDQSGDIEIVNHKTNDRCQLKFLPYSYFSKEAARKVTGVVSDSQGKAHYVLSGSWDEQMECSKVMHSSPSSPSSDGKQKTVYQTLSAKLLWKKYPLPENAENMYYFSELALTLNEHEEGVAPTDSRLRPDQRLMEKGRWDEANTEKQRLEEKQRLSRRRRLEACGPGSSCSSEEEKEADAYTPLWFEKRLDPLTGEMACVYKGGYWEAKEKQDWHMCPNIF", "assay": "[3H]-25-hydroxycholesterol charcoal-dextran binding assay with ORP4L-myc-his", "conditions": "for Ki: read-out: [^3H]-25-OHC K1 (nM) ORP4L-myc-his, competition with 20 nM [3H]-25-OHC, HEK-293T S100 lysate, 4° C., 16 h; for fold lower affinity for ORP4L than for OSBP1: ratio of Ki values", "quoted_text": "[^3H]-25-Hydroxycholesterol charcoal-dextran binding assay. […] These vectors were transfected into HEK-293T cells using Lipofectamine™2000 (Invitrogen), and 48 h after transfection, on-plate lysis of the transfected cells with the M-Per®/HALT™ with EDTA (ThermoScientific) reagent was performed, followed by ultracentrifugation at 100,000 g. The S100 lysate was diluted to 0.2 mg/mL, aliquoted and stored at −80° C. until use. The HEK-293T OSBP1-, ORP4L- or lacZ-myc-his lysate was incubated with [^3H]-25-hydroxycholesterol at 4° C. for 16 h in 96-well plates. After incubation, charcoal/dextran (C/D) was added to the wells for 30 min of shaking at RT, followed by centrifugation for 15 min at 1900 g to pellet the C/D. The C/D-cleared lysate was added to MicroScint™-20 (PerkinElmer) scintillation fluid, and the remaining protein-bound radiolabel was quantified using a TopCount™ scintillation counter. [^3H]-25-hydroxycholesterol binding curves and competition curves were repeated at least three times.\nLysates were thawed on ice, with brief periods of hand warming. Both the ^3H-25-OHC direct binding assays and the ^3H-25-OHC competition binding assays were set up similarly, with a large stock of binding assay lysate being prepared, then 73.5 μL of the binding assay mixture dispensed using a multi-channel pipettor into “V”-shaped 96-well plates. For the ^3H-25-OHC direct binding assay, 1.5 μL of ^3H-25-OHC and ^3H-25-OHC/40×25-OHC added to the wells in dilutions in 100% ethanol. For the ^3H-25-OHC competition binding assays, ^3H-25-OHC was added to the large stock of binding assay lysate to a final concentration of 20 nM. This ^3H-25-OHC-containing binding lysate was then dispensed using a multi-channel pipettor into the 96-well plates. Then, 1.5 μL of a serial dilution of the inhibitors in either 100% ethanol (25-OHC) or DMSO (the ORPphilins) was added to each well.\nThe binding lysate used in each well of the 96-well plate consisted of 60 μL of 0.2 mg/mL S100 lysate, 7.5 μL 20% PVA, and 5.6 μL 2M KCl. For ^3H-25-OHC binding curve experiments, 0.4 μL of buffer was then added (total volume per well: 73.5 μL). For the ^3H-25-OHC inhibition competition assays, 0.11 μL of 13.2 μM ^3H-25-OHC and 0.29 μL binding buffer was added for each well (total volume per well: 73.5 μL).\nBinding assays were incubated, standing, for 16 h at 4° C. Then 30 μL of the rt C/D solution was multichannel pipetted into new “V’ shaped 96-well plates, and 60 μL of the binding lysate mixture was then added. The plates were briefly, lightly vortexed (˜10 sec), 10 and then rocked at 250 rpm for 30 min at rt. The plates were then centrifuged at 1900 g for 15 min at 4° C. in Microplate Carriers (Sorvall cat. #75006449S) in a Sorvall Legend RT centrifuge. Carefully so as to not disturb the C/D pellet, 30 μL of the supernatant was transferred to 170 μL of Microscint-20 in the OptiPlates. The plates were sealed with the TopSealA-Films, and vigorously vortexed (max speed, >1 min). ^3H-25-OHC detection in the wells was then performed using a TopCount Scintillation detector, counting each well for 2 min. Data was graphed and analyzed using GraphPad PrismS, using non-linear regression to determine KD and K1 values.\nBinding experiments were performed at 4° C. for 16 h. Unbound sterol was removed using dextran-coated charcoal, and protein-bound sterol left in the supernatant was quantified by scintillation counting. Ki-values were determined as mean±s.d. from at least three independent experiments."}, "[2]": {"target": "T2, OSBP1(V582M) (Homo sapiens, UniProt P22059, V582M)", "T2 construct": "made in house; host or cells: HEK-293T (transient transfection; S100 lysate, not purified)", "T2 sequence (P22059 1-807 V582M)": "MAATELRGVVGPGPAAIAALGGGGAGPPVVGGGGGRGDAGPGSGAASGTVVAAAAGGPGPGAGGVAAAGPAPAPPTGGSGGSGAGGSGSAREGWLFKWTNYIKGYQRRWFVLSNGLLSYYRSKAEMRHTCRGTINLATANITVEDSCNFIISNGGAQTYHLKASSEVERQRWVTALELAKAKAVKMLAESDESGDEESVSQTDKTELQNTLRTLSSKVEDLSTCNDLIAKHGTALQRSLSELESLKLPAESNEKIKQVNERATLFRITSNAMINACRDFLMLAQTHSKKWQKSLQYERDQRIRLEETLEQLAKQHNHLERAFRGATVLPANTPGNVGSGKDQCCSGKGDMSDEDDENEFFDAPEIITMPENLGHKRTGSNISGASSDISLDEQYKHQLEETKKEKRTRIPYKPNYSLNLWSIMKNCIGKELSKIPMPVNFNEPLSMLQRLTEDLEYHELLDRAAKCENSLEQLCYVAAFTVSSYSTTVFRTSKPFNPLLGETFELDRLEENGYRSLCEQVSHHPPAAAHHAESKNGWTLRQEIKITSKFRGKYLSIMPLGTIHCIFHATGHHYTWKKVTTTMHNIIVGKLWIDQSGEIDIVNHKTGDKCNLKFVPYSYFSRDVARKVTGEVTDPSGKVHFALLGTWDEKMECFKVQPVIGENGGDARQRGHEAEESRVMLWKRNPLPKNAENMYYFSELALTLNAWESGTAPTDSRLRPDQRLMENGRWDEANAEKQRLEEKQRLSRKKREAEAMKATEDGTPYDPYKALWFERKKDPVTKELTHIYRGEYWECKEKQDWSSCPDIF", "assay": "[3H]-25-OHC binding, OSBP1(V582M) mutant", "conditions": "for binding affinity for OSBP1(V582M) compared to wt OSBP1-myc-his: [3H]-25-OHC competition binding", "description": "[^3H]-25-Hydroxycholesterol charcoal-dextran binding assay.\nThe binding affinity of 1, 2 and 4a to the OSBP1(M446W) and OSBP1(V582M) mutants were then determined using [^3H]-25-OHC competition binding. […] Within error limits, the binding affinity of 1, 2 and 4a for these two OSBP1 mutants were unchanged compared to wt OSBP1-myc-his (FIG. 4D)."}, "[3]": {"tested_on": "HeLa cells overexpressing OSBP1(V582M)", "assay": "Overexpression-viability assay, OSBP1(V582M)-myc-his", "type": "cell-based", "conditions": "48 h", "description": "Overexpression-viability assays with wild-type and mutant OSBP/ORP4L constructs were carried out by transfecting HeLa cells with the appropriate plasmids using Lipofectamine™ LTX with PLUS™ reagent (Invitrogen) as instructed, and after 8 h of transfection, the cells were re-plated for the cell viability assay, performed as described above. Expression levels were evaluated by immunoblotting at the time of dosing.\nFor additional support that OSBP1 and ORP4L are targets of the ORPphilins, dominant drug-resistant alleles of these proteins were sought. 15 OSBP1 residues inside and outside the region of the protein previously reported to mediate sterol binding were mutated (FIG. 4C). The growth inhibition induced by the ORPphilins was determined in HeLa cells overexpressing either wild-type or mutant OSBP1-myc-his proteins. Expression of wt OSBP1-myc-his and mutant OSBP1-myc-his were nearly equivalent as measured by western blot.\nThe same mutant caused a 3.9-fold reduction in the antiproliferative activity of OSW-1 (2) (FIG. 4E2) and a 2.7-fold reduction in the activity of schweinfurthin A (4a) (FIG. 4E3). […] The antiproliferative activity of taxol was unaffected by expression of these two OSBP1 mutant proteins (FIGS. 4E4, 4E8)."}},
  "data": [
    {"compound": "C[C@@H]1[C@]2(O[C@H]3C=C4[C@@H]5CC[C@H]6Cc7nc8c(nc7C[C@]6(C)[C@H]5C[C@@H](O)[C@]4(C)[C@]31O)C[C@@H]1CC[C@H]3C4=CC[C@@H]5[C@H](C)[C@@]6(OC[C@]45C(=O)C[C@@H]3[C@@]1(C)C8)OC(C)(C)C[C@H]6O)O[C@](C)(CO)C[C@H]2O", "note": "[cephalostatin 1, Cephalostatin 1]", "values": [
      {"measurement": "Ki", "setting": "[1]", "value": "78 ± 15", "unit": "nM"},
      {"measurement": "binding affinity for OSBP1(V582M) compared to wt OSBP1-myc-his", "setting": "[2]", "value": "unchanged"},
      {"measurement": "reduction in antiproliferative activity, OSBP1(V582M) vs wt OSBP1", "setting": "[3]", "value": 9.4, "unit": "fold"}
    ]},
    {"compound": "C[C@H](CCCC(C)(C)O)[C@H]1CC[C@H]2[C@@H]3CC=C4C[C@@H](O)CC[C@]4(C)[C@H]3CC[C@]12C", "note": "[Compound 25-OHC, 25-hydroxycholesterol]", "values": [
      {"measurement": "Kd", "setting": "[1]; read-out: Kd of [3H]-25-hydroxycholesterol, ORP4L, direct binding", "value": "0.054 ± 0.023", "unit": "µM"},
      {"measurement": "25-OHC KD of OSBP1(V582M) compared to wt", "setting": "[2]", "value": "slightly higher"}
    ]},
    {"compound": "COc1ccc(C(=O)O[C@H]2[C@H](O[C@@H]3[C@@H](OC(C)=O)[C@H](O[C@H]4C[C@H]5[C@@H]6CC=C7C[C@@H](O)CC[C@]7(C)[C@H]6CC[C@]5(C)[C@@]4(O)[C@H](C)C(=O)CCC(C)C)OC[C@@H]3O)OC[C@@H](O)[C@@H]2O)cc1", "note": "[OSW-1]", "values": [
      {"measurement": "Ki", "setting": "[1]", "value": "54 ± 11", "unit": "nM"},
      {"measurement": "binding affinity for OSBP1(V582M) compared to wt OSBP1-myc-his", "setting": "[2]", "value": "unchanged"},
      {"measurement": "reduction in antiproliferative activity, OSBP1(V582M) vs wt OSBP1", "setting": "[3]", "value": "did not affect"}
    ]},
    {"compound": "schweinfurthin A", "values": [
      {"measurement": "fold lower affinity for ORP4L than for OSBP1", "setting": "[1]", "value": "approximately 40 fold"},
      {"measurement": "fold lower affinity for ORP4L than for OSBP1", "setting": "[1]; listed as 4a", "value": "~40", "unit": "fold"},
      {"measurement": "Ki", "setting": "[1]", "value": "2600 ± 570", "unit": "nM"},
      {"measurement": "binding affinity for OSBP1(V582M) compared to wt OSBP1-myc-his", "setting": "[2]", "value": "unchanged"},
      {"measurement": "reduction in antiproliferative activity, OSBP1(V582M) vs wt OSBP1", "setting": "[3]", "value": "did not affect"}
    ]}
  ]
}
